{"source": "ChEMBL document CHEMBL5550155", "about": "“Discovery of meisoindigo derivatives as noncovalent and orally available Mpro inhibitors: their therapeutic implications in the treatment of COVID-19” (Eur J Med Chem, 2024)", "key": {"[1]": {"target": "Replicase polyprotein 1ab (Severe acute respiratory syndrome coronavirus 2) (UniProt P0DTD1)", "assay": "Inhibition of recombinant SARS-CoV-2 main protease expressed in Escherichia coli BL21 DE3 expression cells using MCA-AVLQSGFR-Lys(Dnp)-Lys-NH2 as substrate at 10 uM incubated for 10 to 15 mins followed by substrate addition by FRET assay relative to control", "settings": "time 10-15 min"}, "[2]": {"target": "T1, Replicase polyprotein 1ab (Severe acute respiratory syndrome coronavirus 2, UniProt P0DTD1)", "assay": "Inhibition of recombinant SARS-CoV-2 main protease expressed in Escherichia coli BL21 DE3 expression cells using MCA-AVLQSGFR-Lys(Dnp)-Lys-NH2 as substrate incubated for 10 to 15 mins followed by substrate addition by FRET assay"}, "[3]": {"tested_on": "SARS-CoV-2", "assay": "Antiviral activity against wild type SARS-CoV-2 infected in human Calu-3 cells assessed as reduction in viral spike protein level at 10 uM preincubated with cells for 2 hrs followed by viral infection for 1 hr and measured after 24 hrs by Western blot analysis", "type": "functional, organism-based", "settings": "Severe acute respiratory syndrome coronavirus 2, time 27.0 hrs"}, "[4]": {"tested_on": "SARS-CoV-2", "assay": "Antiviral activity against wild type SARS-CoV-2 infected in human Calu-3 assessed as reduction in viral spike protein level at 10 uM preincubated with cells for 2 hrs followed by viral infection for 1 hr and measured after 24 hrs by RT-qPCR analysis", "type": "functional, organism-based", "settings": "Severe acute respiratory syndrome coronavirus 2, time 27.0 hrs"}, "[5]": {"tested_on": "SARS-CoV-2", "assay": "Antiviral activity against wild type SARS-CoV-2 infected in human Calu-3 assessed as reduction in nucleocapsid protein level at 10 uM preincubated with cells for 2 hrs followed by viral infection for 1 hr and measured after 24 hrs by Western blot analysis", "type": "functional, organism-based", "settings": "Severe acute respiratory syndrome coronavirus 2, time 27.0 hrs"}, "[6]": {"tested_on": "SARS-CoV-2", "assay": "Antiviral activity against wild type SARS-CoV-2 infected in human Calu-3 cells assessed as reduction in nucleocapsid protein mRNA level at 10 uM preincubated with cells for 2 hrs followed by viral infection for 1 hr and measured after 24 hrs by RT-qPCR analysis", "type": "functional, organism-based", "settings": "Severe acute respiratory syndrome coronavirus 2, time 27.0 hrs"}, "[7]": {"assay": "n-Octanol/water partition coefficient, logP of the compound incubated for 12 hrs by HPLC analysis", "type": "physicochemical"}, "[8]": {"assay": "Metabolic stability in mouse liver microsomes assessed as intrinsic clearance at 10 mg/ml preincubated for 5 mins followed by NADPH addition and measured upto 120 mins by HPLC analysis", "type": "ADME, Microsome", "settings": "time < 125 min, read-out: CLH"}, "[9]": {"target": "T1, Replicase polyprotein 1ab", "assay": "Non-covalent inhibition of SARS-CoV-2 main protease incubated for 50 mins followed by substrate addition by FRET assay"}, "[10]": {"tested_on": "SARS-CoV-2", "assay": "Antiviral activity against wild type SARS-CoV-2 infected in human HeLa cells expressing ACE2 assessed as reduction in viral spike protein level preincubated with cells for 2 hrs followed by viral infection for 1 hr and measured after 24 hrs by RT-qPCR analysis", "type": "functional, organism-based", "settings": "Severe acute respiratory syndrome coronavirus 2, HeLa"}, "[11]": {"tested_on": "SARS-CoV-2", "assay": "Antiviral activity against wild type SARS-CoV-2 infected in human HeLa cells expressing ACE2 assessed as reduction in nucleocapsid protein mRNA level preincubated with cells for 2 hrs followed by viral infection for 1 hr and measured after 24 hrs by RT-qPCR analysis", "type": "functional, organism-based", "settings": "Severe acute respiratory syndrome coronavirus 2, HeLa"}, "[12]": {"target": "T1, Replicase polyprotein 1ab", "assay": "Non-covalent inhibition of SARS-CoV-2 main protease incubated for 30 mins followed by substrate addition by FRET assay"}, "[13]": {"target": "T1, Replicase polyprotein 1ab", "assay": "Binding affinity to recombinant SARS-CoV-2 main protease expressed in Escherichia coli BL21 DE3 expression cells assessed as dissociation constant measured for 60 secs by SPR analysis"}, "[14]": {"assay": "Solubility of the compound in water incubated for 24 hrs by HPLC analysis", "type": "physicochemical"}, "[15]": {"tested_on": "SARS-CoV-2", "assay": "Antiviral activity against wild type SARS-CoV-2 infected in human HeLa cells expressing ACE2 assessed as reduction in nucleocapsid protein level at 10 uM preincubated with cells for 2 hrs followed by viral infection for 1 hr and measured after 24 hrs by Western blot analysis", "type": "functional, organism-based", "settings": "Severe acute respiratory syndrome coronavirus 2, time 27.0 hrs"}, "[16]": {"assay": "Stability of compound in stimulated intestinal fluid assessed as parent compound remaining measured upto 24 hrs by HPLC analysis", "type": "ADME", "settings": "simulated intestinal fluid, read-out: Stability"}, "[17]": {"assay": "Stability of compound in stimulated gastric fluid assessed as parent compound remaining measured upto 24 hrs by HPLC analysis", "type": "ADME", "settings": "simulated gastric fluid, read-out: Stability"}, "[18]": {"assay": "Metabolic stability in mouse liver microsomes assessed as half life at 10 mg/ml preincubated for 5 mins followed by NADPH addition and measured upto 120 mins by HPLC analysis", "type": "ADME, Microsome", "settings": "time < 125 min"}, "[19]": {"tested_on": "SARS-CoV-2", "assay": "Antiviral activity against SARS-CoV-2 infected in African green monkey Vero E6 cells assessed as reduction in viral plaque number pre-infected with virus followed by cell addition for 1 hr and measured after 24 hrs by plaque assay", "type": "functional, organism-based", "settings": "Severe acute respiratory syndrome coronavirus 2"}, "[20]": {"tested_on": "SARS-CoV-2", "assay": "Antiviral activity against wild type SARS-CoV-2 infected in human HeLa cells expressing ACE2 assessed as reduction in viral spike protein level at 10 uM preincubated with cells for 2 hrs followed by viral infection for 1 hr and measured after 24 hrs by Western blot analysis", "type": "functional, organism-based", "settings": "Severe acute respiratory syndrome coronavirus 2, time 27.0 hrs"}, "[21]": {"target": "T1, Replicase polyprotein 1ab", "assay": "Non-covalent inhibition of SARS-CoV-2 main protease incubated for 10 mins followed by substrate addition by FRET assay"}, "[22]": {"tested_on": "SARS-CoV-2", "assay": "Antiviral activity against SARS-CoV-2 infected in African green monkey Vero E6 cells assessed as reduction in viral plaque size pre-infected with virus followed by cell addition for 1 hr and measured after 24 hrs by plaque assay", "type": "functional, organism-based", "settings": "Severe acute respiratory syndrome coronavirus 2"}, "[23]": {"assay": "Metabolic stability in mouse liver microsomes assessed as parent compound remaining at 10 mg/ml measured after 120 mins by HPLC analysis", "type": "ADME, Microsome", "settings": "read-out: Stability"}}, "note": "Calls of active or inactive are those of the source. The rule behind the calls is not given here.", "data": [{"compound": "COc1ccc2c(c1)/C(=C1\\C(=O)Nc3ccccc31)C(=O)N2CCCCCCCC(=O)O", "values": [{"measurement": "inhibition", "setting": "[1]", "result": 89.1, "unit": "%"}, {"measurement": "IC50", "setting": "[2]", "result": 1610, "unit": "nM"}]}, {"compound": "O=C1Nc2ccccc2/C1=C1\\C(=O)N(CCN2CCOCC2)c2ccccc21", "values": [{"measurement": "inhibition", "setting": "[1]", "result": 83.9, "unit": "%"}]}, {"compound": "CCOC(=O)CCCCCCCN1C(=O)/C(=C2/C(=O)Nc3ccccc32)c2cc(Br)ccc21", "values": [{"measurement": "inhibition", "setting": "[1]", "result": 25.2, "unit": "%"}]}, {"compound": "CN1C(=O)/C(=C2/C(=O)N(C)c3ccccc32)c2ccccc21", "values": [{"measurement": "inhibition", "setting": "[1]", "result": 25.7, "unit": "%"}]}, {"compound": "CN1C(=O)/C(=C2/C(=O)Nc3ccccc32)c2ccccc21", "note": "[MEISOINDIGO]", "values": [{"measurement": "inhibition", "setting": "[1]", "result": 50.6, "unit": "%"}, {"measurement": "IC50", "setting": "[2]", "result": 15600, "unit": "nM"}]}, {"compound": "CN1C(=O)/C(=C2/C(=O)Nc3ccc(Br)cc32)c2ccccc21", "values": [{"measurement": "inhibition", "setting": "[1]", "result": 94.5, "unit": "%"}]}, {"compound": "O=C(O)CCCCCCCN1C(=O)/C(=C2/C(=O)Nc3ccccc32)c2cc(Br)ccc21", "values": [{"measurement": "Activity", "setting": "[3]", "result": "Active"}, {"measurement": "Activity", "setting": "[4]", "result": "Active"}, {"measurement": "Activity", "setting": "[5]", "result": "Active"}, {"measurement": "Activity", "setting": "[6]", "result": "Active"}, {"measurement": "inhibition", "setting": "[1]", "result": 97.8, "unit": "%"}, {"measurement": "IC50", "setting": "[2]", "result": 1210, "unit": "nM"}]}, {"compound": "CN1C(=O)/C(=C2/C(=O)Nc3ccccc32)c2cc(O)ccc21", "values": [{"measurement": "Activity", "setting": "[3]", "result": "Active"}, {"measurement": "Activity", "setting": "[4]", "result": "Active"}, {"measurement": "Activity", "setting": "[6]", "result": "Active"}, {"measurement": "inhibition", "setting": "[1]", "result": 84.2, "unit": "%"}]}, {"compound": "O=C(O)CCCCCCCCCN1C(=O)/C(=C2/C(=O)Nc3ccccc32)c2ccccc21", "values": [{"measurement": "inhibition", "setting": "[1]", "result": 71.2, "unit": "%"}]}, {"compound": "CN1C(=O)/C(=C2/C(=O)Nc3ccccc32)c2cc(Cl)ccc21", "values": [{"measurement": "inhibition", "setting": "[1]", "result": 40.8, "unit": "%"}]}, {"compound": "CN1C(=O)/C(=C2/C(=O)N(CCCN)c3ccc(Br)cc32)c2ccccc21.Cl", "values": [{"measurement": "logP at 12 h", "setting": "[7]", "result": 0.29}, {"measurement": "microsomal CLint", "setting": "[8]", "result": 1.4, "unit": "µL/min/mg"}, {"measurement": "IC50", "setting": "[9]", "result": 1340, "unit": "nM"}, {"measurement": "EC50", "setting": "[10]", "result": 2740, "unit": "nM"}, {"measurement": "EC50", "setting": "[11]", "result": 2660, "unit": "nM"}, {"measurement": "IC50", "setting": "[12]", "result": 1150, "unit": "nM"}, {"measurement": "Kd", "setting": "[13]", "result": 16800, "unit": "nM"}, {"measurement": "solubility at 24 h", "setting": "[14]", "result": 2490, "unit": "µg/mL"}, {"measurement": "Activity", "setting": "[15]", "result": "Active"}, {"measurement": "remaining at 24 h", "setting": "[16]", "result": 73.6, "unit": "%"}, {"measurement": "inhibition", "setting": "[1]", "result": 90.5, "unit": "%"}, {"measurement": "remaining at 24 h", "setting": "[17]", "result": 95.3, "unit": "%"}, {"measurement": "half-life", "setting": "[18]", "result": 8.25, "unit": "h"}, {"measurement": "Activity", "setting": "[19]", "result": "Active"}, {"measurement": "Activity", "setting": "[20]", "result": "Active"}, {"measurement": "IC50", "setting": "[21]", "result": 1300, "unit": "nM"}, {"measurement": "IC50", "setting": "[2]", "result": 1350, "unit": "nM"}, {"measurement": "Activity", "setting": "[22]", "result": "Active"}, {"measurement": "remaining at 2 h", "setting": "[23]", "result": 84, "unit": "%"}]}, {"compound": "COc1ccc2c(c1)C1(CC=CCC13C(=O)Nc1ccccc13)C(=O)N2C", "note": "(centres undefined)", "values": [{"measurement": "inhibition", "setting": "[1]", "result": 4.1, "unit": "%"}]}, {"compound": "CN1C(=O)/C(=C2/C(=O)Nc3ccccc32)c2cc(Br)ccc21", "values": [{"measurement": "inhibition", "setting": "[1]", "result": 32.4, "unit": "%"}]}, {"compound": "CN1C(=O)C2(CC=CCC23C(=O)Nc2ccccc23)c2ccccc21", "note": "(centres undefined)", "values": [{"measurement": "inhibition", "setting": "[1]", "result": 11.9, "unit": "%"}]}, {"compound": "CN1C(=O)/C(=C2/C(=O)Nc3ccccc32)c2cc(F)ccc21", "values": [{"measurement": "inhibition", "setting": "[1]", "result": 82.5, "unit": "%"}]}, {"compound": "CC(C)(C)[C@H](NC(=O)C(F)(F)F)C(=O)N1C[C@H]2[C@@H]([C@H]1C(=O)N[C@H](C#N)C[C@@H]1CCNC1=O)C2(C)C", "values": [{"measurement": "EC50", "setting": "[10]", "result": 16900, "unit": "nM"}]}]}
